Drawing on PubChem BioAssay AID179 (DTP/NCI, 2004), this text covers outcome, EC50 and IC50 for 70 compounds.

Calls of active or inactive are those of the source.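 The calls were made as follows: active = compounds giving half or more protection of infected cells from virus-caused growth loss, again on retest; inactive = the rest.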 Where a SMILES comes first, the peptide text is derived from it. The star is where a group is joined. Boc = CC(C)(C)OC(=O)*; OBn = c1ccc(CO*)cc1

For the assay, the system named is CEM cells HIV-1 protection, formazan growth assay. Description: NCI AIDS Antiviral Assay. Conditions: for IC50: measured here: growth of uninfected CEM cells. The method in brief:
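Five concentrations of each compound were applied to infected and uninfected human CEM cells. Protection from HIV-1 was judged from growth measured with a soluble formazan assay.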

Take `O=CN(SSN(C=O)C1CCCCC1)C1CCCCC1`: the result was inactive.

The term EC50 denotes the concentration needed to bring the measured effect to its halfway point. The term IC50 denotes the concentration that inhibits the measured activity by half. Higher therefore signals lower potency. For `O=c1[nH]c(=O)n(C2CC(O)C(CO)O2)cc1OCc1ccccc1` (configuration not stated), the EC50 is over 200 µM and the IC50 was over 200 µM.

For the compound `CC(NNC(=S)N1CCCC1)c1cccnn1` (configuration not stated), the EC50 was over 200 µM and the IC50 was found to be 0.372 µM.

Consider `Cn1nc(Cc2ccc(Cl)cc2)n(N)c1=O`, for which the EC50 is over 200 µM and the 50% inhibitory concentration (IC50) is over 200 µM.

Turning to `Cc1ccc(NC(=O)C(=O)CC(=O)c2c(C)n([O-])c3ccccc3[n+]2=O)cc1C`, the EC50 was over 64.6 µM and the IC50 was over 64.6 µM.

With `CC(C)C(/C=C/c1ccc(Cl)cc1)=N\NC(=S)NN`, the EC50 was over 200 µM and the IC50 was determined as 12 µM.

With `CCOC(=O)C12CCC(c3c(C)cccc3C)(O1)C(C(=O)OC)=C2C(=O)OC` (configuration not stated), the EC50 is over 200 µM and the IC50 was found to be 107 µM.

Regarding `O=C1c2cccc3cccc(c23)C(=O)N1CCN1C(=O)c2cccc3cccc(c23)C1=O`, the EC50 was over 200 µM and the concentration for half-maximal inhibition (IC50) worked out at 30.2 µM.

Consider `COc1ccc(NC(=O)CC/C(CC(=O)c2ccco2)=N/NC(N)=S)cc1`, for which the result was inactive.

`CCN(C(=O)N[C@@H](C)C(=O)N[C@@H](Cc1ccccc1)C(=O)OC)c1ccccc1`: the result was inactive.

Regarding `COC(=O)C1Cc2ccc3c(c2C1=O)CCCC3` (configuration not stated), the EC50 is over 200 µM and the IC50 stood at 186 µM.

Regarding `COC(=O)C(CC12CC3CC(CC(C3)C1)C2)NC(=O)C(N)CC(=O)O` (configuration not stated), the EC50 was over 200 µM and the IC50 was over 200 µM.

Regarding `O=C(/C=C/c1ccc([N+](=O)[O-])o1)N1CCN(Cc2ccccc2)CC1`, the EC50 is over 95.5 µM and the IC50 amounted to 11.2 µM.

In the case of `CC1N=C(c2ccccn2)C(c2ccccn2)=NC1c1ccccc1` (configuration not stated), the EC50 was over 79.4 µM and the IC50 is over 79.4 µM.

`CC1=N/C(=C\c2ccccc2F)C(=O)O1`: the EC50 was over 631 µM and the IC50 was over 631 µM.

Turning to `COc1ccc(C(=O)c2ccc(OC)c(S(=O)(=O)O)c2)cc1S(=O)(=O)O`, the EC50 was over 575 µM and the 50% inhibitory concentration (IC50) is over 575 µM.

On to `CCS(=O)(=O)CCOP(=O)(c1ccccc1)c1ccccc1`, for which the result was inactive.

In the case of `COc1ccc(-c2csc(=Nc3ccccc3)n2CC(O)c2ccc([N+](=O)[O-])cc2)cc1` (configuration not stated), the EC50 was over 200 µM and the IC50 turned out to be 38 µM.

As for `OCCCNCC(O)c1ccc(OCc2ccccc2)c(OCc2ccccc2)c1` (configuration not stated), the EC50 was over 200 µM and the IC50 stood at 5.13 µM.

For the compound `O=[N+]([O-])C1C2C=CC(C2)[C@H]1c1ccc(Cl)cc1Cl` (some centres not stated), the outcome was inactive.

For `N#CNC(=NCc1ccccc1)NCCc1c[nH]c2ccccc12`, the EC50 is 145 µM and the IC50 was 162 µM.

Turning to `CCOC(=O)c1ccc(-n2cnc(-c3ccc([N+](=O)[O-])cc3)c2)cc1`, the half-maximal effective concentration (EC50) is 95.5 µM and the IC50 was over 200 µM.

Take `CC(=O)/C=C(/C)[O-].CCN(CC)CCNCCN.O=N[O-].[Co+3].[O-][Cl+3]([O-])([O-])[O-]`: the EC50 was over 200 µM and the IC50 is over 200 µM.

Turning to `S=C1NCCNC(=S)SS1`, the EC50 is over 34.7 µM and the 50% inhibitory concentration (IC50) is over 34.7 µM.

As to `CCN(C)c1nc(N(C)CC)c2nc(N(C)CC)nc(N(C)CC)c2n1`, the EC50 is over 501 µM and the IC50 was determined as 120 µM.

Turning to `O=C1N(c2ccccc2)SN2C3C=CC(C4CC43)N12` (configuration not stated), the EC50 is over 182 µM and the IC50 is over 182 µM.

Regarding `O=C(C[P+](c1ccccc1)(c1ccccc1)c1ccccc1)c1ccc(Br)cc1`, the EC50 is over 200 µM and the half-maximal inhibitory concentration (IC50) stood at 14.8 µM.

Turning to `C=CCn1c(-c2ccc([N+](=O)[O-])cc2)csc1=N`, the EC50 is over 200 µM and the IC50 came out at 26.3 µM.

In the case of `Cc1ncc2c(n1)CCC1=C2OS(=O)(=O)CC1N(C)C` (configuration not stated), the EC50 is over 200 µM and the half-maximal inhibitory concentration (IC50) was 38.9 µM.

As to `N#Cc1c(N)c2c(c(-c3ccccc3)c1-c1ccccc1)C(=O)N(NC(=S)Nc1ccccc1)C2=O`, the EC50 is over 58.9 µM and the 50% inhibitory concentration (IC50) came to 47.9 µM.

Consider `NCCCNCCSP(=O)(O)O`, for which the EC50 was over 1150 µM and the IC50 was 257 µM.

As to `CC(C)=CC(=O)OC1C2C(C)=CC(O)C(O)C2(C)C2C3(O)OCC24C(CC(=O)OC14)C(C)C3O` (configuration not stated), the EC50 was over 2 µM and the IC50 worked out at 0.0912 µM.

As for `N#CCCC[Si]12OCCN(CCO1)CCO2`, the result was inactive.

For the compound `O=S(=O)(O)CCCNC(CO)(CO)CO`, the EC50 is over 200 µM and the 50% inhibitory concentration (IC50) is over 200 µM.

`c1ccc2nocc2c1`: the EC50 was over 2090 µM and the concentration for half-maximal inhibition (IC50) amounted to 1100 µM.

`Cn1c(=O)c(C(=O)Nc2nc(C34CC5CC(CC(C5)C3)C4)cs2)c(O)c2ccccc21`: the EC50 was over 100 µM and the IC50 was over 100 µM.

Take `CN(C)CCNc1ccc2c(=O)n(CCN(C)C)c(=O)n3c4ccc(N)cc4c(=O)c1c23`: the EC50 is over 200 µM and the half-inhibitory concentration (IC50) was 0.0631 µM.

For the compound `Cc1cc(-c2ccc(N=Nc3c(N)c(C)cc(S(=O)(=O)O)c3N)c(C)c2)ccc1N=Nc1ccc(O)c(C(=O)O)c1`, the concentration for a half-maximal effect (EC50) was 126 µM and the IC50 is over 200 µM.

As to `CC1=C(C(=O)Nc2cc(F)c(F)cc2F)C(c2ccc(N(C)C)cc2)C(C(=O)Nc2cc(F)c(F)cc2F)=C(C)N1`, the EC50 was over 23.4 µM and the IC50 is over 23.4 µM.

Consider `COc1ccc(OC)c(C(Cc2ccnc3ccccc23)Cc2ccnc3ccccc23)c1`, for which the EC50 was over 200 µM and the IC50 was 26.3 µM.

As for `CC1=C(C(=O)Nc2ccccc2C)C(c2ccc([N+](=O)[O-])cc2)C(C(=O)Nc2ccccc2C)=C(C)N1`, the EC50 was over 10.5 µM and the IC50 was over 10.5 µM.

Turning to `COC1(C)CNCC(C)(C)NC(=O)C(C)(OC)CNCC(C)(C)NC1=O` (configuration not stated), the EC50 was over 81.3 µM and the concentration for half-maximal inhibition (IC50) was over 81.3 µM.

On to `CC(C)(C)OC(=O)C1C(=O)C(C(=O)OC(C)(C)C)C2(C)C(C(=O)OC(C)(C)C)C(=O)C(C(=O)OC(C)(C)C)C12C` (configuration not stated), for which the EC50 was over 31.6 µM and the IC50 was found to be 11.2 µM.

Regarding `O=S(=O)(NCCSSCCNS(=O)(=O)c1cccc2cccnc12)c1cccc2cccnc12`, the EC50 is over 200 µM and the IC50 came to 10.7 µM.

Take `Cc1cc(NS(=O)(=O)c2ccc(NC(=O)c3cccc4c(NNc5ccc(S(=O)(=O)N=C(N)N)cc5)c5ccccc5nc34)cc2)no1`: the EC50 was over 158 µM and the half-inhibitory concentration (IC50) was 63.1 µM.

Turning to `CCC1(OC(=O)CN)C(=O)OCc2c1cc1n(c2=O)Cc2cc3ccccc3nc2-1` (configuration not stated), the EC50 was over 10 µM and the IC50 stood at 0.00692 µM.

For the compound `Cc1cc(=O)n2c(n1)sc1ccc3ccccc3c12`, the EC50 was over 200 µM and the IC50 was over 200 µM.

In the case of `COC12OC3(C4OC41)C(C(=O)O[C@H]3CO[Si](C)(C)C(C)(C)C)C2C(=O)Oc1ccccc1` (some centres not stated), the EC50 is over 200 µM and the IC50 is over 200 µM.

As to `CC1(C)COC(c2ccccc2Br)=N1`, the EC50 is over 200 µM and the half-maximal inhibitory concentration (IC50) is over 200 µM.

Regarding `O=C(C=Nc1ccccc1C(=O)[O-])c1cccs1.O=C(C=Nc1ccccc1C(=O)[O-])c1cccs1.[Ni+2]`, the result was inactive.

Consider `CCN1C[C@]2(COC)CCC(O)C34[C@@H]5C[C@@H]6C(O)[C@@H]5[C@](O)(C[C@@H]6OC)[C@@H](C(OC)[C@@H]32)[C@H]14` (some centres not stated), for which the outcome was inactive.

In the case of `CC(C)CC(NC(=O)OC(C)(C)C)C(=O)NC(CC(=O)OCc1ccccc1)C(N)=O` (stereo not drawn) (Boc-Leu-Asp(OBn)-NH2; configuration not given here), the EC50 was over 200 µM and the concentration for half-maximal inhibition (IC50) was over 200 µM.

As for `O=CC1(C(O)C2SCCCS2)SCCCS1` (configuration not stated), the EC50 was over 100 µM and the half-inhibitory concentration (IC50) came out at 5.5 µM.

On to `Cc1cc2[nH]c3c(C#N)c(O)c(C)c(=O)n3c2cc1C`, for which the EC50 is over 166 µM and the IC50 is over 166 µM.

As to `c1csc(-c2ccsc2-c2cccs2)c1`, the EC50 is over 200 µM and the IC50 amounted to 97.7 µM.

Regarding `O=C1C=C(Nc2ccc(Cl)cc2C(=O)c2ccccc2)c2ccccc2C1=O`, the EC50 is over 174 µM and the half-inhibitory concentration (IC50) was over 174 µM.

For `COc1cccc2c1OC(c1ccc(Cl)cc1)C([N+](=O)[O-])=C2` (configuration not stated), the EC50 was over 200 µM and the half-maximal inhibitory concentration (IC50) came to 1.45 µM.

For `O=C(Nc1ccc(Cl)cc1)NS(=O)(=O)c1ccc2c(c1)CCC2`, the EC50 is over 708 µM and the half-maximal inhibitory concentration (IC50) was 47.9 µM.

Turning to `CC1(C)CC(=O)C(/C=N/C(N)=S)=C(O)C1`, the EC50 is over 200 µM and the concentration for half-maximal inhibition (IC50) was over 200 µM.

Consider `CC(CC[C@@H](O)C(C)(C)O)C1[C@@H](O)CC2(C)C3CC(O)C4C(C)(C)[C@@H](OC5OC(CO)C(O)C(O)C5O)CC[C@@]45C[C@@]35CC[C@]12C` (some centres not stated), for which the EC50 is over 200 µM and the half-inhibitory concentration (IC50) is over 200 µM.

As to `OCC(O)COc1c(Cl)cc(Cl)cc1Cl` (configuration not stated), the EC50 was over 251 µM and the half-maximal inhibitory concentration (IC50) was over 251 µM.

On to `CC(=O)Oc1c(C)cc(-c2cc(C)c(OC(C)=O)c(C)c2)cc1C`, for which the EC50 is over 200 µM and the IC50 was found to be 55 µM.

In the case of `c1ccc(CC2(c3cc4ccccc4[nH]3)OCCO2)nc1`, the EC50 is over 200 µM and the concentration for half-maximal inhibition (IC50) came out at 174 µM.

With `CC/C=C\C/C=C\C/C=C\CCCCCCCC(=O)OCC(O)CO` (configuration not stated), the EC50 is over 28.2 µM and the concentration for half-maximal inhibition (IC50) is over 28.2 µM.

Turning to `CCC1(O)C(=O)OCc2c1cc1n(c2=O)Cc2cc3cc4c(cc3nc2-1)OCO4` (configuration not stated), the EC50 is over 0.1 µM and the IC50 stood at 0.00562 µM.

For the compound `O=C1CSC(c2ccc(Cl)cc2)N1c1ccc(-n2c(-c3ccccc3)nc3ccccc3c2=O)cc1` (configuration not stated), the EC50 is over 200 µM and the IC50 was 67.6 µM.

As to `O=C(CCc1ccccc1)ON1C(=S)NC(c2ccccc2)(c2ccccc2)C1=S`, the EC50 was over 200 µM and the IC50 came to 33.1 µM.

On to `Cc1cccc2[nH]c3cc(O)cc(O)c3c(=O)c12`, for which the EC50 was over 200 µM and the 50% inhibitory concentration (IC50) stood at 10.5 µM.

Consider `Cc1ccc2c(c1)nc1c3ccccc3nnn21`, for which the EC50 is over 16.2 µM and the IC50 was over 16.2 µM.

As for `C#CCCCCCCCCC/C=C1\C[C@H](O)COC1=O`, the EC50 is over 245 µM and the IC50 was determined as 46.8 µM.
